In patent US8247211B2, “Glycopeptide antibiotics” (American Cyanamid Company, priority 2001, dated 2012):
Values after ≈ are worked out from the molar mass of the structure shown. One block for each compound: values may come before it.

Columns and labels:
Test in all cases: In vitro antibacterial evaluation: minimum inhibitory concentration (MIC), broth dilution method
Assay type in all cases: cell-based
Staphylococcus sp. = system: Staphylococcus sp.
Description: (§1) The minimum inhibitory concentration (MIC), the lowest concentration of the antibiotic which inhibits growth of the test organism, is determined by the broth dilution method using Muller-Hinton II […] (Baltimore Biological Laboratories) following the recommendations of the National Committee for Clinical Laboratory Standards [Methods for dilution antimicrobial susceptibility tests for bacteria that grow aerobically, approved standard M7-A2, National Committee for Clinical Laboratory Standards, Villanova, Pa].
(§2) An inoculum level of 5×10^5 CFU/mL, and a range of antibiotic concentrations (64-0.06 μg/mL) is used. […] The test organisms include a spectrum of Gram-positive bacteria comprised of Staphylococcus sp., Streptococcus sp. and Enterococcus sp. These organisms include recent clinical isolates that are resistant to methicillin, penicillin and/or vancomycin.

Escherichia coli = system: Escherichia coli
Description: as §1, §2

Enterococcus sp. = system: Enterococcus sp.
Description: as §1, §2

Streptococcus sp. = system: Streptococcus sp.
Description: as §1, §2

[1] = strain GC 4543, broth dilution, 18 hours at 35° C.
[2] = strain GC 4546, broth dilution, 18 hours at 35° C.
[3] = strain GC 4547, broth dilution, 18 hours at 35° C.
[4] = strain GC 4548, broth dilution, 18 hours at 35° C.
[5] = strain GC 4549, broth dilution, 18 hours at 35° C.
[6] = strain GC 4551, broth dilution, 18 hours at 35° C.
[7] = strain GC 6257, broth dilution, 18 hours at 35° C.
[8] = 5×10^5 CFU/mL, 18 hours at 35° C.
[9] = broth dilution, 5×10^5 CFU/mL, 18 hours at 35° C.

- MIC Staphylococcus aureus (ATCC 29213) (Staphylococcus sp.; strain ATCC 29213): 0.5 µg/mL (≈ 0.361 µM)
- MIC Staphylococcus aureus (GC 1131) (Staphylococcus sp.; strain GC 1131): 0.5 µg/mL (≈ 0.361 µM)
- MIC Staphylococcus aureus (GC 3051) (Staphylococcus sp.; strain GC 3051): 0.5 µg/mL (≈ 0.361 µM)
- MIC Staphylococcus aureus (GC 3053) (Staphylococcus sp.; strain GC 3053): 0.5 µg/mL (≈ 0.361 µM)
- MIC Staphylococcus aureus (GC 4541) (Staphylococcus sp.; strain GC 4541): 0.5 µg/mL (≈ 0.361 µM)
- MIC Staphylococcus aureus (GC 4542) (Staphylococcus sp.; strain GC 4542): 0.5 µg/mL (≈ 0.361 µM)
- MIC Staphylococcus aureus-SMITH (GC 4543) (Staphylococcus sp.; strain GC 4543, 18 hours at 35° C.): 0.5 µg/mL (≈ 0.361 µM)
- MIC Staphylococcus aureus-SMITH (GC 4543) (Staphylococcus sp.; [1]): 0.5 µg/mL (≈ 0.361 µM)
- MIC Staphylococcus aureus (GC 4544) (Staphylococcus sp.; strain GC 4544): 0.5 µg/mL (≈ 0.361 µM)
- MIC Staphylococcus aureus (GC 4545) (Staphylococcus sp.; strain GC 4545): 0.5 µg/mL (≈ 0.361 µM)
- MIC Coagulase Negative Staphylococcus (GC 4547) (Staphylococcus sp.; strain GC 4547): 4 µg/mL (≈ 2.89 µM)
- MIC Coagulase Negative Staphylococcus (GC 4547) (Staphylococcus sp.; [3]): 4 µg/mL (≈ 2.89 µM)
- MIC Coagulase Negative Staphylococcus (GC 4548) (Staphylococcus sp.; strain GC 4548): 4 µg/mL (≈ 2.89 µM)
- MIC Coagulase Negative Staphylococcus (GC 4548) (Staphylococcus sp.; [4]): 4 µg/mL (≈ 2.89 µM)
- MIC Coagulase Negative Staphylococcus (GC 4549) (Staphylococcus sp.; strain GC 4549): 4 µg/mL (≈ 2.89 µM)
- MIC Coagulase Negative Staphylococcus (GC 4549) (Staphylococcus sp.; [5]): 4 µg/mL (≈ 2.89 µM)
- MIC Coagulase Negative Staphylococcus (GC 4551) (Staphylococcus sp.; strain GC 4551): 8 µg/mL (≈ 5.78 µM)
- MIC Coagulase Negative Staphylococcus (GC 4551) (Staphylococcus sp.; [6]): 8 µg/mL (≈ 5.78 µM)
- MIC Coagulase Negative Staphylococcus (GC 6257) (Staphylococcus sp.; strain GC 6257): 2 µg/mL (≈ 1.45 µM)
- MIC Coagulase Negative Staphylococcus (GC 6257) (Staphylococcus sp.; [7]): 2 µg/mL (≈ 1.45 µM)
- MIC Escherichia coli (ATCC 25922) (Escherichia coli; [8]): >0.5 µg/mL
- MIC Escherichia coli (GC 4559) (Escherichia coli; [8]): >0.5 µg/mL
- MIC Escherichia coli (GC 4560) (Escherichia coli; [8]): 0.5 µg/mL (≈ 0.361 µM)
- MIC Enterococccus avium (GC 4558) (Enterococcus sp.; [9]): 0.5 µg/mL (≈ 0.361 µM)
- MIC Enterococccus faecalis (ATCC 29212) (Enterococcus sp.; [9]): 0.5 µg/mL (≈ 0.361 µM)
- MIC Enterococccus faecalis (GC 2691) (Enterococcus sp.; [9]): 0.5 µg/mL (≈ 0.361 µM)
- MIC Enterococccus faecalis (GC 3059) (Enterococcus sp.; [9]): 0.5 µg/mL (≈ 0.361 µM)
- MIC Enterococccus faecalis (GC 4552) (Enterococcus sp.; [9]): 0.5 µg/mL (≈ 0.361 µM)
- MIC Enterococccus faecalis (GC 4553) (Enterococcus sp.; [9]): 0.5 µg/mL (≈ 0.361 µM)
- MIC Enterococccus faecalis (GC 4554) (Enterococcus sp.; [9]): 0.5 µg/mL (≈ 0.361 µM)
- MIC Enterococccus faecalis (GC 6189) (Enterococcus sp.; [9]): 0.5 µg/mL (≈ 0.361 µM)
- MIC Enterococccus faecium (GC 2243) (Enterococcus sp.; [9]): 0.5 µg/mL (≈ 0.361 µM)
- MIC Enterococccus faecium (GC 4556) (Enterococcus sp.; [9]): 0.5 µg/mL (≈ 0.361 µM)
- MIC Enterococccus faecium (GC 4557) (Enterococcus sp.; [9]): 0.5 µg/mL (≈ 0.361 µM)
- MIC Enterococcus faecalis (GC 2242) (Enterococcus sp.; [9]): 0.5 µg/mL (≈ 0.361 µM)
- MIC Streptococcus agalactiae (GC 4564) (Streptococcus sp.; [9]): 0.5 µg/mL (≈ 0.361 µM)
- MIC Streptococcus pneumoniae (GC 1894) (Streptococcus sp.; [9]): 0.12 µg/mL (≈ 0.0867 µM)
- MIC Streptococcus pneumoniae (GC 4565) (Streptococcus sp.; [9]): 0.12 µg/mL (≈ 0.0867 µM)
- MIC Streptococcus pneumonine (ATCC 6301) (Streptococcus sp.; [9]): 0.12 µg/mL (≈ 0.0867 µM)
- MIC Streptococcus pyogenes (GC 4563) (Streptococcus sp.; [9]): 0.12 µg/mL (≈ 0.0867 µM)
Compound: CC(c1ccccc1)C1NC(=O)CNC(=O)C(CO)NC(=O)C(C(O)C2CNC(=N)N2C2OC(CO)C(O)C(O)C2O)NC(=O)C(C(O)C2CNC(=N)N2)NC(=O)C(Cc2ccc(OC3OC(CO)C(OC4OC(CO)C(O)C5OC(c6ccccc6)OC45)C(O)C3O)cc2)NC1=O (single isomer, unassigned) [Example 104b, Cyclo[glycyl-β-methylphenylalanyl-O-[4-O-(2,3-O-benzylidenehexopyranosyl)hexopyranosyl]-tyrosyl-3(2-iminoimidazolidin-4-yl)seryl-3-(3-hexopyranosyl-2-iminoimidazolidin-4-yl)-serylseryl]]
- MIC Staphylococcus haemolyticus (GC 4546) (Staphylococcus sp.; strain GC 4546): 0.5 µg/mL (≈ 0.361 µM)
- MIC Staphylococcus haemolyticus (GC 4546) (Staphylococcus sp.; [2]): 0.5 µg/mL (≈ 0.361 µM)

- MIC Coagulase Negative Staphylococcus (GC 4547) (Staphylococcus sp.; [9]): 16 µg/mL (≈ 11.3 µM)
- MIC Coagulase Negative Staphylococcus (GC 4548) (Staphylococcus sp.; [9]): 8 µg/mL (≈ 5.66 µM)
- MIC Coagulase Negative Staphylococcus (GC 4549) (Staphylococcus sp.; [9]): 8 µg/mL (≈ 5.66 µM)
- MIC Coagulase Negative Staphylococcus (GC 4551) (Staphylococcus sp.; [9]): 16 µg/mL (≈ 11.3 µM)
- MIC Coagulase Negative Staphylococcus (GC 6257) (Staphylococcus sp.; [9]): 8 µg/mL (≈ 5.66 µM)
- MIC Staphylococcus aureus (ATCC 29213) (Staphylococcus sp.; [9]): 32 µg/mL (≈ 22.6 µM)
- MIC Staphylococcus aureus (GC 1131) (Staphylococcus sp.; [9]): 32 µg/mL (≈ 22.6 µM)
- MIC Staphylococcus aureus (GC 3051) (Staphylococcus sp.; [9]): 32 µg/mL (≈ 22.6 µM)
- MIC Staphylococcus aureus (GC 3053) (Staphylococcus sp.; [9]): 32 µg/mL (≈ 22.6 µM)
- MIC Staphylococcus aureus (GC 4541) (Staphylococcus sp.; [9]): 16 µg/mL (≈ 11.3 µM)
- MIC Staphylococcus aureus (GC 4542) (Staphylococcus sp.; [9]): 32 µg/mL (≈ 22.6 µM)
- MIC Staphylococcus aureus (GC 4544) (Staphylococcus sp.; [9]): 32 µg/mL (≈ 22.6 µM)
- MIC Staphylococcus aureus (GC 4545) (Staphylococcus sp.; [9]): 32 µg/mL (≈ 22.6 µM)
- MIC Staphylococcus aureus-SMITH (GC 4543) (Staphylococcus sp.; [9]): 16 µg/mL (≈ 11.3 µM)
- MIC Staphylococcus aureus (ATCC 29213) (Staphylococcus sp.; strain ATCC 29213, broth dilution, 18 hours at 35° C.): 32 µg/mL (≈ 22.6 µM)
- MIC Staphylococcus aureus (GC 1131) (Staphylococcus sp.; strain GC 1131, broth dilution, 18 hours at 35° C.): 32 µg/mL (≈ 22.6 µM)
- MIC Staphylococcus aureus (GC 3051) (Staphylococcus sp.; strain GC 3051, broth dilution, 18 hours at 35° C.): 32 µg/mL (≈ 22.6 µM)
- MIC Staphylococcus aureus (GC 3053) (Staphylococcus sp.; strain GC 3053, broth dilution, 18 hours at 35° C.): 32 µg/mL (≈ 22.6 µM)
- MIC Staphylococcus aureus (GC 4541) (Staphylococcus sp.; strain GC 4541, broth dilution, 18 hours at 35° C.): 16 µg/mL (≈ 11.3 µM)
- MIC Staphylococcus aureus (GC 4542) (Staphylococcus sp.; strain GC 4542, broth dilution, 18 hours at 35° C.): 32 µg/mL (≈ 22.6 µM)
- MIC Staphylococcus aureus-SMITH (GC 4543) (Staphylococcus sp.; [1]): 16 µg/mL (≈ 11.3 µM)
- MIC Staphylococcus aureus (GC 4544) (Staphylococcus sp.; strain GC 4544, broth dilution, 18 hours at 35° C.): 32 µg/mL (≈ 22.6 µM)
- MIC Staphylococcus aureus (GC 4545) (Staphylococcus sp.; strain GC 4545, broth dilution, 18 hours at 35° C.): 32 µg/mL (≈ 22.6 µM)
- MIC Coagulase Negative Staphylococcus (GC 4547) (Staphylococcus sp.; [3]): 16 µg/mL (≈ 11.3 µM)
- MIC Coagulase Negative Staphylococcus (GC 4548) (Staphylococcus sp.; [4]): 8 µg/mL (≈ 5.66 µM)
- MIC Coagulase Negative Staphylococcus (GC 4549) (Staphylococcus sp.; [5]): 8 µg/mL (≈ 5.66 µM)
- MIC Coagulase Negative Staphylococcus (GC 4551) (Staphylococcus sp.; [6]): 16 µg/mL (≈ 11.3 µM)
- MIC Coagulase Negative Staphylococcus (GC 6257) (Staphylococcus sp.; [7]): 8 µg/mL (≈ 5.66 µM)
- MIC Escherichia coli (ATCC 25922) (Escherichia coli; strain ATCC 25922): >64 µg/mL
- MIC Escherichia coli (GC 4559) (Escherichia coli; strain GC 4559): >64 µg/mL
- MIC Escherichi coli (GC 4560) (Escherichia coli; strain GC 4560): 8 µg/mL (≈ 5.66 µM)
- MIC Enterococcus faecalis (ATCC 29212) (Enterococcus sp.; strain ATCC 29212): >64 µg/mL
- MIC Enterococcus faecalis (GC 2242) (Enterococcus sp.; strain GC 2242): >64 µg/mL
- MIC Enterococcus faecium (GC 2243) (Enterococcus sp.; strain GC 2243): >64 µg/mL
- MIC Enterococcus faecalis (GC 2691) (Enterococcus sp.; strain GC 2691): >64 µg/mL
- MIC Enterococcus faecalis (GC 3059) (Enterococcus sp.; strain GC 3059): >64 µg/mL
- MIC Enterococcus faecalis (GC 4552) (Enterococcus sp.; strain GC 4552): >64 µg/mL
- MIC Enterococcus faecalis (GC 4553) (Enterococcus sp.; strain GC 4553): >64 µg/mL
- MIC Enterococcus faecalis (GC 4554) (Enterococcus sp.; strain GC 4554): >64 µg/mL
- MIC Enterococcus faecium (GC 4556) (Enterococcus sp.; strain GC 4556): >64 µg/mL
- MIC Enterococcus faecium (GC 4557) (Enterococcus sp.; strain GC 4557): 16 µg/mL (≈ 11.3 µM)
- MIC Enterococcus avium (GC 4558) (Enterococcus sp.; strain GC 4558): 64 µg/mL (≈ 45.3 µM)
- MIC Enterococcus faecalis (GC 6189) (Enterococcus sp.; strain GC 6189): >64 µg/mL
- MIC Streptococcus pneumoniae (ATCC 6301) (Streptococcus sp.; strain ATCC 6301): 8 µg/mL (≈ 5.66 µM)
- MIC Streptococcus pneumoniae (GC 1894) (Streptococcus sp.; strain GC 1894): 4 µg/mL (≈ 2.83 µM)
- MIC Streptococcus pyogenes (GC 4563) (Streptococcus sp.; strain GC 4563): 16 µg/mL (≈ 11.3 µM)
- MIC Streptococcus agalactiae (GC 4564) (Streptococcus sp.; strain GC 4564): 16 µg/mL (≈ 11.3 µM)
- MIC Streptococcus pneumoniae (GC 4565) (Streptococcus sp.; strain GC 4565): 16 µg/mL (≈ 11.3 µM)
Compound: COc1cccc(C2OC3C(OC4C(CO)OC(Oc5ccc(CC6NC(=O)C(C(C)c7ccccc7)NC(=O)CNC(=O)C(CO)NC(=O)C(C(O)C7CNC(=N)N7C7OC(CO)C(O)C(O)C7O)NC(=O)C(C(O)C7CNC(=N)N7)NC6=O)cc5)C(O)C4O)OC(CO)C(O)C3O2)c1 (single isomer, unassigned) [Example 137a, Cyclo[glycyl-β-methylphenylalanyl-O-[4-O-[2,3-O-(3-methoxybenzylidene)hexopyranosyl]-hexopyranosyl]tyrosyl-3-(2-iminoimidazolidin-4-yl)seryl-3-(3-hexopyranosyl-2-iminoimidazolidin-4-yl)serylseryl]]
- MIC Staphylococcus haemolyticus (GC 4546) (Staphylococcus sp.; [9]): 16 µg/mL (≈ 11.3 µM)
- MIC Staphylococcus haemolyticus (GC 4546) (Staphylococcus sp.; [2]): 16 µg/mL (≈ 11.3 µM)
